Patent US12139472B2, “Inhibitors of advanced glycation end products” (priority 2019, dated 2024)

What was measured:
[1] = Pharmacokinetic study for PTG-630 (IV and PO): plasma, whole blood, tissues, urine; assay type: in vivo, Sprague Dawley rats
Description: The samples were analyzed in two batches with standards and QCs prepared on rat plasma and rat urine. Analyst® 1.6 (SCIEX) software was used for statistical analysis of bioanalytical data. […] Dose samples collected at 0.083 h-6 h postdose were diluted 4 times with SD rat plasma prior to plating. Twenty-four (24) hours plasma samples were assayed without dilution. […] Two sciatic nerve samples were excluded from analysis, due to the insufficient sample size. […] The 12 non-cannulated animals were arbitrarily assigned to groups upon arrival and housed together throughout the experiment. The animals were acclimated to their designated housing for at least 24 hours before the first day of dosing. […] Blood samples were collected via cannula from IV dosed rats or by cardiac stick from PO dosed rats at the specified time points for sampling pharmacokinetics. Blood was collected into K2EDTA tubes. Tubes were mixed gently after blood collection, chilled and centrifuged at 3000 rpm, 4° C. within 30 minutes upon collection. The samples were centrifuged at 4° C. and the resultant plasma separated. […] Urine from Group 1 was collected via polycarbonate tubes from rats placed in drug metabolism cages. Urine was maintained and room temperature through the collection period.

CYP3A [2] = target: T1, CYP3A (Homo sapiens, UniProt P08684); assay type: in vitro ADME; conditions: HLM
T1 construct: Two studies were conducted in human liver microsomes (HLM); tissue Eurofins G232 panel; host or cells: human liver microsomes
T1 sequence (P08684 2-503): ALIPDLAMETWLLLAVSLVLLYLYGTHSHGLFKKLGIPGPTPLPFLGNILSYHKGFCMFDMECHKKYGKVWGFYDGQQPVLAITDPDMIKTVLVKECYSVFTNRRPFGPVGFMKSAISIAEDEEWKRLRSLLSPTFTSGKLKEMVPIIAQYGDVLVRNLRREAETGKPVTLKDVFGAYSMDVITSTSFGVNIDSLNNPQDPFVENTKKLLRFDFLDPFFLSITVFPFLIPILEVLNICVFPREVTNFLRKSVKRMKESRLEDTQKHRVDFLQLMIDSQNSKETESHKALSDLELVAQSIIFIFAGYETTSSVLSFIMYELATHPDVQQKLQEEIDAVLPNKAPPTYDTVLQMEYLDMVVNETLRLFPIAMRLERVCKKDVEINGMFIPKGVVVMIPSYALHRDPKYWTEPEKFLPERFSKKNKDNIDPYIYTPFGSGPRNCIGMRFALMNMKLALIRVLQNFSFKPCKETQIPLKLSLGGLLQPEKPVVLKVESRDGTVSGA
Text: (§1) Compound 5 (PTG-630 free base) and 7 additional compounds for CYP3A P450 inhibition.
(§2) Imidazole (and benzimidazole) containing drugs are ubiquitous in pharmacological practice; however, drug-drug interactions (DDI) have been observed with some imidazole-containing classes, such as the antifungal azoles typified by ketoconazole. It is believed that the imidazole moiety accounts for their ability to inhibit CYP3A, the major DDI enzyme that metabolizes up to 50% of common drugs. The compounds of the disclosure incorporate an imidazole moiety attached to a pyridine ring via the imidazole C-2. They all share an imidazo-hydroxypyridine theme that can bind redox metal ions, while differing in the nature of the X side-chain. The potential of the compounds of the disclosure for DDI was evaluated by screening their inhibition of CYP3A.
Two studies were conducted in human liver microsomes (HLM). Lead candidate PTG-630 was tested using the Eurofins G232 panel (Drug Metab Dispos. 2001 January; 29(1):23-9), where inhibition was measured against seven CYP enzymes; CYP3A4 was tested using two different substrates, midazolam and testosterone. In a second study, inhibition of CYP3A4 (midazolam substrate only) was compared for 8 compounds of interest. The test protocol involved one-point measurements in duplicate, where inhibition was measured at a fixed 10 μM concentration of candidate inhibitors. In all cases, the substrate for each CYP enzyme was at a concentration equal to its specific Km value that was independently obtained from an 8-point dose-response study. Based on the observed value for percent inhibition for each test compound, we calculated of an IC50 assuming a competitive mode of inhibition. If percent inhibition for an inhibitor at a concentration of [I] is denoted by P, then: IC50=[I]*(100−P)/P In the single-point assay, [I] is 10 μM. If measured inhibition is 10%, then IC50=10*(100-10)/10=90 μM. […]

CYP3A [3] = assay type: in vitro ADME, human; conditions: HLM
Text: as §1, §2
(§3) Two studies were conducted in human liver microsomes (HLM). Lead candidate PTG-630 was tested using the Eurofins G232 panel (Drug Metab Dispos. 2001 January; 29(1):23-9), where inhibition was measured against seven CYP enzymes; CYP3A4 was tested using two different substrates, midazolam and testosterone. In a second study, inhibition of CYP3A4 (midazolam substrate only) was compared for 8 compounds of interest. The test protocol involved one-point measurements in duplicate, where inhibition was measured at a fixed 10 μM concentration of candidate inhibitors. In all cases, the substrate for each CYP enzyme was at a concentration equal to its specific Km value that was independently obtained from an 8-point dose-response study. Based on the observed value for percent inhibition for each test compound, we calculated of an IC50 assuming a competitive mode of inhibition. If percent inhibition for an inhibitor at a concentration of [I] is denoted by P, then: IC50=[I]*(100−P)/P In the single-point assay, [I] is 10 μM. If measured inhibition is 10%, then IC50=10*(100-10)/10=90 μM. […] As discussed in Lin et al. (J Pharm Sci. 2007 September; 96(9):2485-93; doi: 10.1002/jps.20884), CYP inhibition is broadly interpreted as being “potent” if IC50<1 μM, “moderate” if 1 μM<IC50<10 μM, and “weak” if IC50>10 μM.

seven CYP enzymes = assay: Eurofins G232 panel, CYP inhibition in human liver microsomes; assay type: in vitro ADME; conditions: HLM, 10 μM
Description: as §3

[4] = plasma, PO 100 mg/kg vs IV 5 mg/kg

Cc1ncc(CN2CCOCC2)c(-c2ncc[nH]2)c1O [PTG-630]
fold decrease in AUClast for PO route over IV route [1, 4]: 4 fold
fold decrease in mean Cmax for PO route over IV route [1, 4]: 17 fold
Mean Residence Time (MRT) in plasma, single IV versus PO group ([1]; rat, in vivo): comparable
bioavailable, PO route, based on AUCinf ([1]; rat, in vivo): < 1%
increase in the half-life in plasma, IV route in comparison with PO route ([1]; rat, in vivo): 4.25 folds
terminal phase half-life ([1]; rat, in vivo, iv): 15.8 h
AUClast ([1]; rat, in vivo, iv, 5 mg/kg): 34000 ng·h/mL
Cmax ([1]; rat, in vivo, iv, 5 mg/kg): 20,400 ng/mL
AUC last in liver higher than in plasma ([1]; rat, in vivo, po): 2.6 folds
Elimination phase half-life (t1/2) ([1]; rat, in vivo, po): 1.35 h
Half-life ([1]; rat, in vivo, po): 4.53 h
Tmax in tissues ([1]; rat, in vivo, po): 1 h
absorption in tissues (in words) ([1]; rat, in vivo, po): rapidly absorbed in tissues without delay
detection in tissues 24 hours postdose ([1]; rat, in vivo, po): not detectable in any tissue, except plasma
exposure in kidney higher than in plasma, based on Cmax ([1]; rat, in vivo, po): 3.4 folds
exposure in liver higher than in plasma, based on Cmax ([1]; rat, in vivo, po): 5.47 folds
exposure in muscle (lowest) versus plasma ([1]; rat, in vivo, po): comparable to those in plasma
half-life ([1]; rat, in vivo, po): 3.71 h
half-life in brain relative to plasma (times higher) ([1]; rat, in vivo, po): 1.3 times
level of exposure in selected tissues exceeds the exposure in plasma (up to) ([1]; rat, in vivo, po): 3-5 folds
quantifiable in tissues ([1]; rat, in vivo, po): quantifiable in all tested tissues
AUClast ([1]; rat, in vivo, po, 100 mg/kg): 8600 ng·h/mL
blood brain permeability (in words) ([1]; rat, po): indicating blood brain permeability
P % inhib (CYP3A [2]; CYP3A, substrate testosterone at Km, Inhib Conc. 1.0E−05 M): 1.56%
IC50 (CYP3A [2]; CYP3A, testosterone, from one-point % inhibition at 10 μM, IC50=[I]*(100−P)/P, read-out: Estimated IC50): 631 µM
CYP3A inhibition using testosterone as substrate (in words) (CYP3A [2]; 10 μM): very weak inhibition
Estimated IC50 (CYP3A [3]; midazolam, from one-point % inhibition at 10 μM, IC50=[I]*(100−P)/P): — None
P % inhib (CYP3A [3]; substrate midazolam at Km, Inhib Conc. 1.0E−05 M): −12.1%
CYP inhibition (in words) (seven CYP enzymes): weak to undetectable
